Laboratory results taken from US20250034186A1, “ANTIVIRAL COMPOUNDS” (priority 2020, published 2025).

How the values were obtained:
[1] = NRVM neonatal rat cardiomyocyte cytotoxicity assay; format: cell-based; details: freshly harvested neonatal cardiomyocytes (NRVM)
Method: Compounds were tested in a high-throughput 384-well assay format for cytotoxicity against freshly harvested neonatal rat cardiomyocytes (NRVM). Cells were diluted in media (DMEM+10% FBS+1% PSG+1% NEAA) to 25,000 cells/mL, plated at 90 ul per well in 384 well cell assay plates and incubated overnight at 37° C. and 5% CO2 before compound addition. Compounds were prepared by serial dilution (1:3) in 100% DMSO in 384-well plates in quadruplicate. 400 nL/well of compound were transferred into cell assay plates via Biocel (Agilent Technologies). DMSO and 2 mM Puromycin were included as negative and positive controls respectively. After 5 days, plates are washed 1× w/ 100 ul/well PBS with Biotek plate washer, and 20 μL of Cell Titer Glo was added to each well. Plates were incubated 10 min and read on EnVision reader (Perkin Elmer). […] CC50 values were calculated in Accord (on-line tool) using a one-site dose-response model to generate sigmoidal curve fits.

HRV14 = HRV14 HeLa EC50; format: cell-based, human rhinovirus; details: for EC50: Human rhinovirus sp., HRV14, H1-HeLa cells, 96 h, 37° C.
Method: (§1) H1-HeLa cells, cultured in complete RPMI 1640 medium containing 10% heat-inactivated FBS and 1% Penicillin/Streptomycin, were seeded in 96 well plates at 5000 cells/well one day prior to compound dosing and infection. The antiviral activity of each compound was measured in triplicate. Compounds were added directly to the cell cultures in serial 3-fold dilutions using the HP300 digital dispenser (Hewlett Packard, Palo Alto, CA) immediately prior to infection. The plates were transferred to BSL-2 containment and 100 μL of 1/4000 dilution of HRV14 virus stock was added to each well containing cells and serially diluted compounds. Each plate included 6 wells of infected untreated cells and 6 wells of cells containing 5 μM Rupintrivir that served as 0% and 100% virus inhibition control, respectively. Following the infection, test plates were incubated for 96 h in a tissue culture incubator set to 37° C./5% CO2. Following incubation, the H1-HeLa cells were removed from incubation and allowed to equilibrate to 25° C. Cell viability was determined by removing 100 μL of culture medium and adding 100 μL of Cell-Titer Glo viability reagent. The mixtures were incubated on a shaker for 10 minutes at 25° C., and the luminescence signal was quantified on an Envision luminescence plate reader.

in vitro = in vitro ADME; details: plasma, 37° C., up to 4 h
Method: For plasma stability, the compounds were incubated at 2 μM in cynomolgus monkey or human plasma for up to 4 h at 37° C. At desired time points, an aliquot from the incubation was quenched by addition of 9 volumes of 100% acetonitrile supplemented with internal standard. Following the last collection, samples were centrifuged at 3000 g for 30 min and supernatants were transferred to a new plate containing an equal volume of water for analysis by liquid chromatography coupled to triple quadrupole mass spectrometry (LC-MS/MS). Data (analyte to internal standard peak area ratio) were plotted on a semi log scale and fitted using an exponential fit. The half-life (T1/2) was determined assuming first order kinetics.

HRV1a = assay: HRV1A HeLa EC50; format: cell-based, human rhinovirus; details: for EC50: Human rhinovirus sp., HRV1A, HeLa, 96 h, read-out: HRV1A HeLa EC50
Method: as §1, with “HRV1a” for “HRV14”

[2] = Stability assay in human hepatic S9 fractions; format: in vitro ADME; details: 37° C., NADPH and UDPGA, read-out: Hum HepS9 t1/2
Method: For S9 stability, the compounds were incubated at 2 μM in cynomolgus monkey or human hepatic S9 fractions for up to 90 min at 37° C. in the presence of NADPH and UDPGA (Phase I and Phase II cofactor, Sigma-Aldrich). At desired time points following compound addition, samples were quenched with 9 volumes of an aqueous solution containing internal standard, 50% acetonitrile and 25% methanol. Sample plates were centrifuged at 3000 g for 30 min, and 10 μL of the resulting solution was analyzed by LC-MS/MS. Data (analyte to internal standard peak area ratio) were plotted on a semi log scale and fitted using an exponential fit. The half-life (T1/2) was determined assuming first order kinetics.

PBMC cytotoxicity assay = format: cell-based; details: human, cryopreserved PBMCs
Method: Compounds were tested in a high-throughput 384-well assay format for cytotoxicity in cryopreserved human PBMCs. Compounds were serially diluted (1:3) in 100% DMSO in 384-well plates in quadruplicate. An acoustic dispenser was used to transfer 310 nL of compound into assay plates. DMSO and 2 mM Puromycin were included as negative and positive controls respectively. Cells were diluted in media (RPMI+10% FBS+1% PSG+10 mM Hepes+1% Pyruvate+0.1% BMe) to 72K cells/mL and allowed to rest for 4 hours in an incubator at 37° C. and 5% CO2 before plating into prespotted assay plates at 70 uL/well. After 5 days, 25 μL of Cell Titer Glo was added to the assay plates. […] CC50 values were calculated in Accord (on-line tool) using a one-site dose-response model to generate sigmoidal curve fits.

[3] = human, read-out: Hum Plasma t1/2
[4] = cynomolgus monkey, read-out: Cyno Plasma t1/2

| Compound | CC50 at 5 days [1] [µM] | EC50 (HRV14) [nM] | half-life at 2 μM (in vitro; [3]) [min] | EC50 (HRV1a) [nM] | half-life at 2 μM [2] [min] | CC50 at 5 days (PBMC cytotoxicity assay) [µM] | half-life at 2 μM (in vitro; [4]) [min] | times more potent relative to compound 1, HRV14 HeLa (HRV14; EC50 ratio vs compound 1) [times] | times more potent compared to compound 2, HRV14 HeLa (HRV14; EC50 ratio vs compound 2) | times more potent relative to compound 3, HRV14 HeLa (HRV14; EC50 ratio vs compound 3) | times more potent relative to compound 5, HRV14 HeLa (HRV14; EC50 ratio vs compound 5) | times more potent relative to compound 1, HRV1A HeLa (HRV1a; EC50 ratio vs compound 1) [times] | times more potent compared to compound 2, HRV1A HeLa (HRV1a; EC50 ratio vs compound 2) | times more potent relative to compound 3, HRV1A HeLa (HRV1a; EC50 ratio vs compound 3) | times more potent relative to compound 5, HRV1A HeLa (HRV1a; EC50 ratio vs compound 5) |
| --- | --- | --- | --- | --- | --- | --- | --- | --- | --- | --- | --- | --- | --- | --- | --- |
| CCOC(=O)[C@H](C)NP(=O)(OC[C@@]1(C#N)O[C@@H](c2ccc3c(N)ncnn23)[C@H](O)[C@@H]1O)Oc1ccccc1 (stereo partly drawn) [Compound 1, reference compound] | > 44.4 | 1000 | 667 | 409 | 12 | 18.2 |  |  |  |  |  |  |  |  |  |
| CCC(CC)COC(=O)[C@H](C)NP(=O)(OC[C@@]1(C#N)O[C@@H](c2ccc3c(N)ncnn23)[C@H](O)[C@@H]1O)Oc1ccccc1 (stereo partly drawn) [Compound 2, reference compound] | > 44.4 | 171 | 152 | 97 | 12 | 4.65 | 289 |  |  |  |  |  |  |  |  |
| CCC(CC)COC(=O)[C@H](C)N[P@](=O)(OC[C@@]1(C#N)O[C@@H](c2ccc3c(N)ncnn23)[C@H](O)[C@@H]1O)Oc1ccccc1 [Compound 6, 2-ethylbutyl ((S)-(((2R,3S,4R,5S)-5-(4-aminopyrrolo[2,1-f][1,2,4]triazin-7-yl)-2-cyano-3,4-dihydroxytetrahydrofuran-2-yl)methoxy)(phenoxy)phosphoryl)alaninate] | 8.09 |  | 131 |  | 7 | 4.79 | 257 |  |  |  |  |  |  |  |  |
| C[C@H](N[P@](=O)(OC[C@@]1(C#N)O[C@@H](c2ccc3c(N)ncnn23)[C@H](O)[C@@H]1O)Oc1ccccc1)C(=O)OC1CCCCC1 [Formula I, cyclohexyl ((S)-(((2R,3S,4R,5S)-5-(4-aminopyrrolo[2,1-f][1,2,4]triazin-7-yl)-2-cyano-3,4-dihydroxytetrahydrofuran-2-yl)methoxy)(phenoxy)phosphoryl)-L-alaninate] | 27.7 | 78 | 483 | 8 | 31 | > 31.6 | 444 | ~12.8 | about 2.2 times | about 23.2 times | about 44.0 times | ~51.1 | about 12.1 times | about 91.9 times | about 203.1 times |
